According to paper PMC5344255, “Design, Synthesis and Biochemical Evaluation of Novel Selective Estrogen Receptor Ligand Conjugates Incorporating an Endoxifen-Combretastatin Hybrid Scaffold” (Biomedicines, 2016):
“And” between values parts separate entries of the source, which are not always exact repeats. Equal entries are not always repeated. Where two headings read alike, the source gives them in different places. Marks after values point to notes of the source that are not given here.

Legend:
[1] = tested on: U251; assay: NCI 60 cell line screen; format: cell-based, human; conditions: U251 (CNS Cancer)
[2] = tested on: HOP-62; assay: NCI 60 cell line screen; format: cell-based, human; conditions: HOP-62 (Non-Small Cell Lung Cancer)
[3] = tested on: PC-3; assay: NCI 60 cell line screen; format: cell-based, human; conditions: PC-3 (Prostate cancer)
[4] = tested on: SNB-75; assay: NCI 60 cell line screen; format: cell-based, human; conditions: SNB-75 (CNS Cancer)
[5] = tested on: BT-549; assay: NCI 60 cell line screen; format: cell-based, human; conditions: BT-549 (Breast Cancer); one-dose 10 µM
[6] = tested on: MALME-3M; assay: NCI 60 cell line screen; format: cell-based, human; conditions: MALME-3M (Melanoma); one-dose 10 µM
[7] = tested on: SR; assay: NCI 60 cell line screen; format: cell-based, human; conditions: SR (Leukemia)
[8] = tested on: NCI-H460; assay: NCI 60 cell line screen; format: cell-based, human; conditions: NCI-H460 (Non-Small Cell Lung Cancer)
[9] = tested on: Ishikawa cell line of human endometrial adenocarcinoma cells; assay: Ishikawa assay, estrogen stimulation of alkaline phosphatase activity; format: cell-based
Experimental: The Ishikawa assay is used to measure estrogen stimulation of alkaline phosphatase enzyme activity (AlkP) by the Ishikawa cell line of human endometrial adenocarcinoma cells. The Ishikawa assay provides a measure of the agonist activity of a compound. […] The assay was carried out following the method of Littlefield et al.. The batch of Ishikawa cells were obtained as a gift from Professor R. Hochberg—who developed the alkaline phosphatase assay in Yale University, CT, USA.
The Ishikawa assay is used to measure estrogen stimulation of alkaline phosphatase enzyme activity (AlkP) by the Ishikawa cell line of human endometrial adenocarcinoma cells. […] The conjugate was dosed in duplicate.

[10] = tested on: A549/ATCC; assay: NCI 60 cell line screen; format: cell-based, human; conditions: A549/ATCC (Non-Small Cell Lung Cancer)
[11] = tested on: SF295; assay: NCI 60 cell line screen; format: cell-based, human; conditions: SF295 (CNS Cancer)
[12] = tested on: NCI 60 cell lines; assay: NCI 60 cell line screen, values over the panel; format: cell-based; conditions: Homo sapiens
[13] = tested on: A498; assay: NCI 60 cell line screen; format: cell-based
[14] = tested on: SF539; assay: NCI 60 cell line screen; format: cell-based, human; conditions: SF539 (CNS Cancer)
[15] = tested on: EKVX; assay: NCI 60 cell line screen; format: cell-based, human; conditions: EKVX (Non-Small Cell Lung Cancer)
[16] = tested on: SW-620; assay: NCI 60 cell line screen; format: cell-based, human; conditions: SW-620 (Colon Cancer)
[17] = tested on: OVCAR-3; assay: NCI 60 cell line screen; format: cell-based, human; conditions: OVCAR-3 (Ovarian Cancer); one-dose 10 µM
[18] = tested on: K-562; assay: NCI 60 cell line screen; format: cell-based, human; conditions: K-562 (Leukemia)
[19] = tested on: MCF-7 human breast cancer cells; assay: MTT assay for antiproliferative effects in MCF-7; format: cell-based; conditions: Homo sapiens, MCF7, MCF-7, MTT assay
Procedure, shortened: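 MCF-7 grown in MEM and MDA-MB-231 in D-MEM, each with 10% FBS, at 37 °C and 5% CO2. Viability by MTT reduction to formazan by metabolically active cells, plotted against compound concentration. Three experiments in triplicate, given as mean ± SEM.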

[20] = tested on: OVCAR-5; assay: NCI 60 cell line screen; format: cell-based, human; conditions: OVCAR-5 (Ovarian Cancer); one-dose 10 µM
[21] = tested on: RPMI-8226; assay: NCI 60 cell line screen; format: cell-based, human; conditions: RPMI-8226 (Leukemia)
[22] = tested on: NCI-H226; assay: NCI 60 cell line screen; format: cell-based, human
[23] = tested on: DU-145; assay: NCI 60 cell line screen; format: cell-based, human; conditions: DU-145 (Prostate cancer)
[24] = tested on: IGROV1; assay: NCI 60 cell line screen; format: cell-based, human; conditions: IGROV1 (Ovarian Cancer); one-dose 10 µM

In the case of `CCC(=C(c1ccc(O)cc1)c1ccc(OCCN(C)C(=O)/C(=C/c2ccc(OC)c(O)c2)c2cc(OC)c(OC)c(OC)c2)cc1)c1ccc(O)cc1` (mixture of isomers) [Compound 28, (E)-N-(2-{4-[(E/Z)-1,2-Bis-(4-hydroxyphenyl)but-1-enyl]-phenoxy}ethyl)-3-(3-hydroxy-4-methoxyphenyl)-N-methyl-2-(3,4,5-trimethoxyphenyl)acrylamide], the GI50 ([1]; Homo sapiens, U-251, five-dose screen) is reported as 1740 nM, the “GI% (10^−5 M)” value ([1]; one-dose 10 µM) is reported as 93% and 93.37% and the “GI% (10^−5 M)” value ([2]; one-dose 10 µM) is reported as 81.99%. The GI50 ([2]; Homo sapiens, five-dose screen) was 2860 nM, the GI50 ([3]; Homo sapiens, five-dose screen) was 1730 nM and the “GI% (10^−5 M)” value ([3]; one-dose 10 µM) was 86.32%. For the same compound, the GI50 ([4]; Homo sapiens, five-dose screen) was 5960 nM, the “GI% (10^−5 M)” value ([4]; one-dose 10 µM) was 60.65% and the “GI% (10^−5 M)” value [5] was 1.12%. For the same compound, the “GI% (10^−5 M)” value [6] was 1.76%, the GI50 ([7]; Homo sapiens, five-dose screen) was 2350 nM and the “GI% (10^−5 M)” value ([7]; one-dose 10 µM) was 69.03%. For the same compound, the GI50 ([8]; Homo sapiens, five-dose screen) was 1420 nM, the “GI% (10^−5 M)” value ([8]; one-dose 10 µM) was 98% and 98.38% and the “estrogenic activity (alkaline phosphatase stimulation)” value ([9]; compound dosed individually) was “does not display estrogenic stimulation in the cell line”. The “estrogen stimulation (alkaline phosphatase) in mixture with estradiol” value ([9]; dosed with 1 nM estradiol spike) was “a reduction in estrogenic stimulation at low concentrations and a more pronounced reduction in estrogen stimulation over the range of concentrations when compared with the Tamoxifen mixture”, the “GI% (10^−5 M)” value ([10]; one-dose 10 µM) was 86.97% and the GI50 ([10]; Homo sapiens, five-dose screen) was 2880 nM. The GI50 ([11]; Homo sapiens, SF-295, five-dose screen) was 1740 nM, the “GI% (10^−5 M)” value ([11]; one-dose 10 µM) was 73.4% and the CC50 ([12]; in all but 4 cell lines of the panel, read-out: LC50 (the source's name)) was > 50000 nM. The GI50 ([12]; read-out: MG-MID, mean GI50) was 1450 nM, the GI50 ([12]; read-out: log GI50 (mean) (converted)) was 1620 nM and the inhibition at 10 µM ([12]; read-out: mean growth inhibition value) was 98.7%. For the same compound, the “GI% (10^−5 M)” value ([13]; A498 (Renal Cancer), one-dose 10 µM) was 2.94%, the CC50 ([13]; Homo sapiens, A498, five-dose screen, read-out: LC50 (the source's name)) was 32600 nM and the GI50 ([14]; Homo sapiens, SF-539, five-dose screen) was 1180 nM. For the same compound, the “GI% (10^−5 M)” value ([14]; one-dose 10 µM) was 100 ^d,n %, the “GI% (10^−5 M)” value ([15]; one-dose 10 µM) was 85.11% and the GI50 ([15]; Homo sapiens, five-dose screen) was 2010 nM. For the same compound, the GI50 ([16]; Homo sapiens, five-dose screen) was 1210 nM, the “GI% (10^−5 M)” value ([16]; one-dose 10 µM) was 81.32% and the “GI% (10^−5 M)” value [17] was 1%. For the same compound, the GI50 ([18]; Homo sapiens, K562, five-dose screen) was 2570 nM, the “GI% (10^−5 M)” value ([18]; one-dose 10 µM) was 86.1% and the IC50 ([19]; mean of at least three experiments in triplicate) was 5 nM. For the same compound, the IC50 ([19]; values in nM) was 0.005 nM, the “GI% (10^−5 M)” value [20] was 3.21% and the GI50 ([21]; Homo sapiens, five-dose screen) was 896 nM. The “GI% (10^−5 M)” value ([21]; one-dose 10 µM) was 91% and 90.65%, the GI50 ([22]; Homo sapiens, NCI-H226 (Non-Small Cell Lung Cancer), five-dose screen) was 1180 nM and the “GI% (10^−5 M)” value ([22]; NCI-H226 (Non-Small Cell Lung Cancer), one-dose 10 µM) was 100 ^d,g %. For the same compound, the lethality ([22]; NCI-H226, one-dose screen 10 μM) was 73%, the “GI% (10^−5 M)” value ([23]; one-dose 10 µM) was 100 ^d,o % and the GI50 ([23]; Homo sapiens, five-dose screen) was 1660 nM. For the same compound, the “GI% (10^−5 M)” value [24] was 2.3%.
